Experimental findings from ChEMBL document CHEMBL3351447, “Design, synthesis and anticancer evaluation of tetrahydro-β-carboline-hydantoin hybrids” (Bioorg Med Chem Lett, 2014) are described below.

The structures appear in SMILES notation. Active and inactive are the calls of the source. No cut-off for these calls is given here.

One test has as its system A549. The experiment in a line: Cytotoxicity against human A549 cells after 72 hrs by MTT assay. Format: functional, cell-based. Particulars: A549, 72 h. (Formazan colour is commonly taken as a measure of viable cells.)
The test system of a further test is HeLa. As to the kind of experiment: Cytotoxicity against human HeLa cells after 72 hrs by MTT assay. Format: functional, cell-based.
Test [1] in a line: Cytotoxicity against human ME180 cells after 72 hrs by MTT assay. Particulars: ME-180, 72 h. Format: functional, cell-based.
The nature of test [2]: Cytotoxicity against human PC3 cells after 72 hrs by MTT assay. Format: functional, cell-based. Particulars: PC-3, 72 h.
The next test relates to MCF7. The experiment in a line: Cytotoxicity against human MCF7 cells after 72 hrs by MTT assay. It counts as functional, cell-based. Particulars: MCF7, 72 h.
Test [3] is described as follows: Selectivity index, ratio of IC50 for human RWPE cells to IC50 for human PC3 cells. Format: functional.
Test [4] deals with PC-3. As to the kind of experiment: Induction of cell cycle arrest in human PC3 cells assessed as accumulation at G0/G1 phase at 3 uM after 48 hrs by propidium iodide staining based flow cytometry (reference value: 55%). It counts as functional. A general note: Flow cytometry measures light scatter and fluorescence of single cells or particles in a stream.
Test [5] concerns PC-3. The experiment in a line: Induction of cell cycle arrest in human PC3 cells assessed as accumulation at S phase at 3 uM after 48 hrs by propidium iodide staining based flow cytometry (reference value: 15.8%). Format: functional.
The test system of test [6] is PC-3. As to the kind of experiment: Induction of apoptosis in human PC3 cells assessed as induction of apoptotic body formation at 3 and 6 uM after 48 hrs by orange/ethidium bromide staining based fluorescence microscopy. Format: functional, cell-based.
The test system of test [7] is PC-3. The experiment in a line: Induction of apoptosis in human PC3 cells assessed as early apoptotic cells at 1 uM after 48 hrs by orange/ethidium bromide staining based fluorescence microscopy. It counts as functional.
Test [8] deals with PC-3. The experiment in a line: Induction of apoptosis in human PC3 cells assessed as early apoptotic cells at 6 uM after 48 hrs by orange/ethidium bromide staining based fluorescence microscopy. It counts as functional.
For test [9], the system named is PC-3. As to the kind of experiment: Induction of cell cycle arrest in human PC3 cells assessed as accumulation at G2/M phase at 6 uM after 48 hrs by propidium iodide staining based flow cytometry (reference value: 20.9%). It counts as functional.
In test [10] the test system is PC-3. As to the kind of experiment: Induction of cell cycle arrest in human PC3 cells assessed as accumulation at S phase at 6 uM after 48 hrs by propidium iodide staining based flow cytometry (reference value: 15.8%). Format: functional.
Test [11] concerns PC-3. As to the kind of experiment: Induction of apoptosis in human PC3 cells assessed as early apoptotic cells at 3 uM after 48 hrs by orange/ethidium bromide staining based fluorescence microscopy. Format: functional.
The test system of test [12] is PC-3. The experiment in a line: Induction of cell cycle arrest in human PC3 cells assessed as accumulation at G0/G1 phase at 6 uM after 48 hrs by propidium iodide staining based flow cytometry (reference value: 55%). It counts as functional.
For test [13], the system named is PC-3. As to the kind of experiment: Induction of apoptosis in human PC3 cells assessed as induction of cell shrinkage at 3 and 6 uM after 48 hrs by orange/ethidium bromide staining based fluorescence microscopy. Format: functional.
For test [14], the system named is PC-3. As to the kind of experiment: Induction of cell cycle arrest in human PC3 cells assessed as accumulation at G2/M phase at 3 and 6 uM after 48 hrs by propidium iodide staining based flow cytometry. Format: functional.
The test system of test [15] is PC-3. The experiment in a line: Induction of cell cycle arrest in human PC3 cells assessed as accumulation at G2/M phase at 3 uM after 48 hrs by propidium iodide staining based flow cytometry (reference value: 20.9%). It counts as functional.
For test [16], the system named is PC-3. As to the kind of experiment: Induction of apoptosis in human PC3 cells assessed as induction of chromatin condensation with destructive fragmentation of the nucleus at 3 and 6 uM after 48 hrs by orange/ethidium bromide staining based fluorescence microscopy. Format: functional, cell-based.
The test system of test [17] is PC-3. As to the kind of experiment: Induction of apoptosis in human PC3 cells assessed as induction of membrane blebbing at 3 and 6 uM after 48 hrs by orange/ethidium bromide staining based fluorescence microscopy. Format: functional, cell-based.

One may read the IC50 as the midpoint of a concentration-inhibition curve. A high value points to weaker potency. For the molecule `COc1cc([C@@H]2c3[nH]c4ccccc4c3C[C@H]3C(=O)N(c4ccc(Cl)cc4)C(=O)N23)ccc1O`, the IC50 in the test on A549 is above 100 µM; in the test on HeLa, 30.3 µM; in test [1] it was above 100 µM; in test [2] it was 13.4 µM; with MCF7, 42.2 µM.

Take `COc1cc([C@@H]2c3[nH]c4ccccc4c3C[C@@H]3C(=O)N(c4cccc(C(F)(F)F)c4)C(=O)N23)ccc1O`: the IC50 with A549 is 43.9 µM; in the test with HeLa, 15.6 µM; in test [1], 30.7 µM; in test [2], 11.7 µM; in the test with MCF7 it was 35.9 µM.

In the case of `O=C1[C@H]2Cc3c([nH]c4ccccc34)[C@@H](c3cccc(O)c3)N2C(=O)N1CCCl`, the IC50 is above 100 µM in the test with A549; 30.3 µM with HeLa; 48 µM in [1]; 22.3 µM in test [2]; above 100 µM with MCF7.

`O=C1[C@H]2Cc3c([nH]c4ccccc34)[C@@H](c3cccc(O)c3)N2C(=O)N1c1cccc(C(F)(F)F)c1`: the half-inhibitory concentration (IC50) in the test on A549 is 40 µM; in the test on HeLa, 13.6 µM; in test [1], 22.6 µM; in test [2], 11.2 µM; in the test with MCF7 it was 42.6 µM.

On to `COc1cc([C@@H]2c3cc4c(cc3[C@@H](O[C@@H]3O[C@@H]5CO[C@@H](C)O[C@H]5[C@H](O)[C@H]3O)[C@H]3COC(=O)[C@H]23)OCO4)cc(OC)c1O` [ETOPOSIDE], for which the IC50 amounted to 50 µM in the test with A549, 4.71 µM in the test with HeLa, 8.9 µM in [1] and 14.4 µM in test [2]. In addition, in test [3], the “Ratio IC50” value is given as 2.

Turning to `COc1cccc2c1C(=O)c1c(O)c3c(c(O)c1C2=O)C[C@@](O)(C(=O)CO)C[C@@H]3O[C@H]1C[C@H](N)[C@H](O)[C@H](C)O1` [DOXORUBICIN], the IC50 in [1] was determined as 0.39 µM.

Consider `O=C1[C@@H]2Cc3c([nH]c4ccccc34)[C@@H](c3cccc(O)c3)N2C(=O)N1c1cccc(C(F)(F)F)c1`, for which the concentration for half-maximal inhibition (IC50) in the test with A549 was above 100 µM; in the test with HeLa, 31.9 µM; in [1], above 100 µM; in [2], 37.1 µM; with MCF7, 70.9 µM.

As for `O=C1[C@H]2Cc3c([nH]c4ccccc34)[C@@H](c3cccc(O)c3)N2C(=O)N1c1ccc(Cl)cc1`, the IC50 in the test on A549 is 34.8 µM; with HeLa, 12.1 µM; in test [1], 17 µM; in [2], 10.3 µM; with MCF7 it was 40.5 µM.

As for `O=C1[C@@H]2Cc3c([nH]c4ccccc34)[C@@H](c3cccc(O)c3)N2C(=O)N1Cc1ccc(Br)cc1`, the IC50 in the test on A549 stood at 34.8 µM; in the test with HeLa, 24.3 µM; in test [1] it was 88.6 µM; in [2], 8.9 µM; in the test with MCF7 it was 24.9 µM. In [3], the “Ratio IC50” value was 1.9.

`COc1cc([C@@H]2c3[nH]c4ccccc4c3C[C@@H]3C(=O)N(c4ccc(Cl)cc4)C(=O)N23)ccc1O`: the IC50 was above 100 µM in the test with A549; 30.6 µM with HeLa; above 100 µM in [1]; 13.4 µM in test [2]; 19.7 µM in the test on MCF7.

For `COc1cc([C@@H]2c3[nH]c4ccccc4c3C[C@H]3C(=O)N(Cc4ccc(Br)cc4)C(=O)N23)ccc1O`, the IC50 was 77.5 µM in the test on A549; 82.9 µM with HeLa; above 100 µM in test [1]; above 100 µM in [2]; above 100 µM in the test with MCF7.

Take `COc1cc([C@@H]2c3[nH]c4ccccc4c3C[C@H]3C(=O)N(c4cccc(C(F)(F)F)c4)C(=O)N23)ccc1O`: the IC50 in the test with A549 is above 100 µM; with HeLa, 11.4 µM; in test [1], 27.4 µM; in [2] it was 9.6 µM; with MCF7, 48 µM. Besides, the “Ratio IC50” value in [3] came to 1.6.

Turning to `COc1cc([C@@H]2c3[nH]c4ccccc4c3C[C@H]3C(=O)N(CCCl)C(=O)N23)ccc1O`, the concentration for half-maximal inhibition (IC50) with A549 was above 100 µM; in the test with HeLa it was 50 µM; in test [1] it was above 100 µM; in test [2] it was 35.5 µM; in the test with MCF7 it was 50.7 µM.

In the case of `COc1cc([C@@H]2c3[nH]c4ccccc4c3C[C@@H]3C(=O)N(CCCl)C(=O)N23)ccc1O`, the IC50 was above 100 µM in the test with A549; 33.1 µM with HeLa; above 100 µM in test [1]; 29.1 µM in test [2]; above 100 µM with MCF7.

Consider `COc1cc([C@@H]2c3[nH]c4ccccc4c3C[C@@H]3C(=O)N(Cc4ccc(Br)cc4)C(=O)N23)ccc1O`, for which the IC50 in the test on A549 was above 100 µM; in the test on HeLa it was 84.3 µM; in [1], above 100 µM; in test [2] it was 12 µM; in the test on MCF7 it was 19.9 µM.

Consider `O=C1[C@@H]2Cc3c([nH]c4ccccc34)[C@@H](c3cccc(O)c3)N2C(=O)N1CCCl`, for which the IC50 was 68 µM in the test with A549; 60.3 µM in the test with HeLa; 59.5 µM in [1]; 49 µM in test [2]; 48.2 µM with MCF7.

With `O=C1[C@H]2Cc3c([nH]c4ccccc34)[C@@H](c3cccc(O)c3)N2C(=O)N1Cc1ccc(Br)cc1`, the IC50 was 35.4 µM in the test on A549; 11.2 µM in the test with HeLa; 17.5 µM in test [1]; 9.13 µM in test [2]; 27.9 µM in the test with MCF7. Also, in test [3], the “Ratio IC50” value is 1.7.

`O=C1[C@@H]2Cc3c([nH]c4ccccc34)[C@@H](c3cccc(O)c3)N2C(=O)N1c1ccc(Cl)cc1`: the Activity in the test on PC-3 [4] is listed as 43.9%; in the test with PC-3 [5], 15.8%; in the test with PC-3 [7], 8%; in the test with PC-3 [8] it was 42.5%; in the test with PC-3 [9], 34.1%; with PC-3 [10], 11.8%. Besides, the Activity with PC-3 [11] is 25%; in the test with PC-3 [12] it was 45.5%; with PC-3 [15] it was 31.5%. For the same molecule, the IC50 in the test on A549 stood at 16 µM; with HeLa it was 6.5 µM; in [1], 24.6 µM; in test [2], 6.08 µM; in the test on MCF7 it was 26 µM. Moreover, the outcome in the test with PC-3 [6], in the test on PC-3 [13], in the test with PC-3 [16] and in the test with PC-3 [17] was Active. Also, in test [3], the “Ratio IC50” value is reported as 5. Besides, the “fold change (FC)” value with PC-3 [14] worked out at 1.63.
